Laboratory results published in patent publication US4980377A, “1-(aminophenyl)-2-aminopropanone derivatives” (Laboratoire L. Lafon, priority 1984, dated 1990).
“Also recorded” adds a separate entry of the source.

How the values were obtained:
[1] = Particular toxicity in grouped mice; conditions: mouse, in vivo, ip
Experimental: The number of dead animals is noted after 1 hour, 2 hours, 3 hours, 4 hours and 24 hours.

mice [2] = assay: Overall behavior and reactivities in mice; format: in vivo, mouse; conditions: dose not stated
Experimental: (§1) In the neuropsychopharmacological study which follows, a solution of CRL 41 153 in distilled water (pH 1.5) was administered intraperitoneally in a volume of 20 ml/kg to male mice and 5 ml/kg to male rats.
(§2) Groups of three animals are observed before and then 0.25 hour, 0.50 hour, 1 hour, 2 hours, 3 hours and 24 hours after the administration of CRL 41 153.

[3] = pH of solutions in distilled water; format: physicochemical
Experimental: The neuropsychopharmacological study was undertaken according to the procedures described above for CRL 41 153, CRL 41 213 being adminstered intraperitoneally, in solution in distilled water, in a volume of 20 ml/kg to male mice and a volume of 5 ml/kg to male rats, and the pH of the injected solution varying with the concentration of CRL 41 213 according to the data given in Table II below.

rats [4] = assay: Overall behavior and reactivities in rats; format: in vivo, rat; conditions: dose not stated
Experimental: as §1, §2

mice [5] = assay: Interaction with apomorphine in mice; format: in vivo, mouse; conditions: i.p.
Experimental: Groups of 6 mice receive CRL 41 153 0.5 hour before the subcutaneous injection of 1 or 16 mg/kg of apomorphine.

rats [6] = assay: Interaction with apomorphine in rats; format: in vivo, rat; conditions: i.p.
Experimental: CRL 41 153 is administered to groups of 6 rats 0.5 hour before the subcutaneous injection of 0.5 mg/kg of apomorphine.

mice [7] = assay: Spontaneous motility; format: in vivo, mouse; conditions: i.p.
Experimental: 0.5 hour after they have received CRL 41 153, the mice (6 per dose, 12 control animals) are placed in an actimeter, where their motility is recorded for 30 minutes.

mice [8] = assay: Interaction with reserpine; format: in vivo, mouse; conditions: i.p.
Experimental: Four hours after the intraperitoneal injection of 2.5 mg/kg of reserpine, groups of 6 mice receive CRL 41 153.

mice [9] = assay: Motility reduced by hypoxic aggression; format: in vivo, mouse; conditions: i.p.
Experimental: Half an hour after they have received CRL 41 153, the mice (10 per dose, 20 control animals) are subjected to acute hypobaric anoxia [pressure reduction of 600 mm Hg (i.e. about 8×10^4 Pa) in 90 seconds; release of vacuum in 45 seconds] and are then placed in an actimeter, where their motility is recorded for 10 minutes.

mice [10] = assay: Interaction with barbital; format: in vivo, mouse; conditions: i.p., barbital 220 mg/kg
Experimental: Half an hour after the administration of CRL 41 153, groups of 10 mice receive an intraperitoneal injection of barbital (220 mg/kg).

mice [11] = assay: Interaction with oxotremorine; format: in vivo, mouse; conditions: i.p.
Experimental: CRL 41 153 is administered to groups of 6 mice 0.5 hour before the intraperitoneal injection of 0.5 mg/kg of oxotremorine.

mice [12] = assay: Four plate test, traction and electric shock; format: in vivo, mouse; conditions: i.p.
Experimental: The test is performed on groups of 10 mice 30 minutes after the administration of CRL 41 153.

mice [13] = assay: Motility reduced by habituation to the enclosure; format: in vivo, mouse; conditions: i.p.
Experimental: After they have stayed In the actimeters for 18 hours, (he mice (6 per dose, 12 control animals) receive CRL 41 153. They are immediately returned to their respective enclosures and, half an hour later, their motility is recorded for 30 minutes.

mice [14] = assay: Behavioral despair; format: in vivo, mouse; conditions: forcibly immersed mice, i.p.
Excerpt: Half an hour after they have received CRL 41 153, groups of 6 mice are placed in a beaker filled with water to a height of 6 cm. The total period of immobility between the 2nd and 6th minutes following immersion is noted.

[15] = system: gravid White New Zealand female rabbits; assay: Teratogenicity in gravid White New Zealand rabbits; format: in vivo, rabbit; conditions: 10 mg/kg daily, day 5 to day 18 of gestation; for Affected foetuses, %: normal limit 1.5%
How it was run: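 Fetuses harvested by cesarean on gestation day 29 were scored for number and for any malformation (limb blockade, anury, tail or skull defects, exencephaly).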

rats [16] = assay: Interaction with amphetamine; format: in vivo, rat; conditions: i.p.
Experimental: Amphetamine (2 mg/kg) is injected intraperitoneally into groups of 6 rats 30 minutes after the administration of CRL 41 153. […] 4 mg/kg and 16 mg/kg, CRL 41 153 potentiates the intensity and duration of the stereotypies induced by amphetamine.

CNS = assay: Neuropsychopharmacological profile as a whole; format: in vivo, mice and rats; conditions: conclusion of the tests
Experimental: as §1

immunity = assay: Immunological study (overall); conditions: in vivo

COC(=O)C(c1ccccc1)C1CCCCN1 (stereo not drawn) [methylphenidate, reference compound]
selectivity ratio [1]: ~6

CN1Cc2c(N)cccc2C(c2ccccc2)C1 (stereo not drawn) [nomifensin, reference compound]
selectivity ratio [1]: ~4

CC(C(=O)c1ccc(N)cc1)N1CCCCC1 (stereo not drawn) [CRL 41 241]
Overall behavior: observed effects (summary) (mice [2]): excitation with hyperactivity in mice and rats; also recorded: moderate mydriasis in mice and rats
Stereotype movements (summary) (mice [2]): the presence of stereotype movements in mice and rats
pH ([3]; 0.3 g/liter in distilled water): 5.0
pH ([3]; 0.5 g/liter in distilled water): 4.5
pH ([3]; 1 g/liter in distilled water): 3.5
pH ([3]; 2 g/liter in distilled water): 3.0
pH ([3]; 3 g/liter in distilled water): 2.5
pH ([3]; 6 g/liter in distilled water): 2.0
pH ([3]; 26 g/liter in distilled water): 1.5
pH ([3]; 50 g/liter in distilled water): 1.0
pH ([3]; ≤0.05 g/liter in distilled water): 5.5
Overall behavior: observed effects (summary) (rats [4]): excitation with hyperactivity in mice and rats; also recorded: moderate mydriasis in mice and rats
Stereotype movements (summary) (rats [4]): the presence of stereotype movements in mice and rats
Effect on hypothermia induced by apomorphine (mice [5]): antagonism of the hypothermia
Effect on stereotypies induced by apomorphine (rats [6]): potentiation of the stereotypies
Spontaneous motor activity (mice [7]): an increase in the spontaneous motor activity of mice
Effect on hypothermia induced by reserpine (mice [8]): antagonism of the hypothermia
Effect on ptosis induced by reserpine (mice [8]): a decrease in the ptosis induced by reserpine
Motor recovery of mice after hypobaric hypoxia (mice [9]): improvement in the motor recovery
Duration of the sleep induced by barbital (mice [10]): a reduction in the duration of the sleep induced by barbital
Effect on hypothermic action of oxotremorine (mice [11]): antagonism of the hypothermia
Effect on trembling induced by oxotremorine (mice [11]): a very distinct reduction in the intensity of the trembling due to oxotremorine
Effect on convulsant effects of electric shock (mice [12]): total antagonism of the convulsant effect of electric shock
Number of punished passes in the four plate test (mice [12]): a moderate increase in the number of punished passes in the 4 plate test on mice (at high doses)
Motor activity of mice accustomed to their enclosure (mice [13]): resumption in the motor activity of mice accustomed to their enclosure
Period of immobility due to despair (mice [14]): a reduction in the Period of immobility
Affected foetuses, number [15]: 0
Total foetuses (live) [15]: 88
Affected foetuses, % [15]: 0%
Effect on stereotypies induced by amphetamine (rats [16]): potentiation of the stereotypies
Antidepressant effects (overall) (CNS): antidepressant-type effect
Stimulant effects (overall) (CNS): large stimulant component
α-adrenergic stimulant effects (overall) (CNS): an α-adrenergic stimulation component

CC(C(=O)c1ccc(N)cc1)N1CCSCC1 (stereo not drawn) [CRL 41 248]
pH ([3]; 0.05 g/liter in distilled water): 5.0
pH ([3]; 0.1 g/liter in distilled water): 4.5
pH ([3]; 0.2 g/liter in distilled water): 4.0
pH ([3]; 0.4 g/liter in distilled water): 3.5
pH ([3]; 1.2-0.8 g/liter in distilled water): 3.0
pH ([3]; 3.2 g/liter in distilled water): 2.5
pH ([3]; 6.4 g/liter in distilled water): 2.0
pH ([3]; 50 g/liter in distilled water): 1.5
pH ([3]; ≤0.025 g/liter in distilled water): 5.5
Immunological effect (overall) (immunity): immunostimulant or immunomodulating effects
Affected foetuses, number [15]: 1
Total foetuses (live) [15]: 93
Affected foetuses, % [15]: 1.07%
